Assay results published in US20250163038A1, “CBL-B MODULATORS AND USES THEREOF” (Nimbus Clio, Inc., priority 2021, published 2025).
Read-outs that look alike come from different tables or passages of the source.

What was measured:
[1] = biological target: T1, Recombinant human c-Cbl (aa 47-435) (Homo sapiens, UniProt P22681); assay: c-Cbl Biochemical Assay (TR-FRET); conditions: hc-Cbl Biochemical Assay (TR-FRET); read-out: TR-FRET hcCbl IC50
T1 sequence (P22681 47-435): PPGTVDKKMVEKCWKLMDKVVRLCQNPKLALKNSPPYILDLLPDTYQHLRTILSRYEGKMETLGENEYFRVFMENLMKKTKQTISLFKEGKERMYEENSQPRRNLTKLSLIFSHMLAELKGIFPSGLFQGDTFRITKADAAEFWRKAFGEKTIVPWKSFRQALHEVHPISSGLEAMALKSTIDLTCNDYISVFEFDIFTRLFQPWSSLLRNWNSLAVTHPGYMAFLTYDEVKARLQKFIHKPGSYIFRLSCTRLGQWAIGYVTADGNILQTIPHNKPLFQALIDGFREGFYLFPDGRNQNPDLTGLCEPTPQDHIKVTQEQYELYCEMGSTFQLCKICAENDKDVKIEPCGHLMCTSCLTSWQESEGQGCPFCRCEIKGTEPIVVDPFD

[2] = biological target: Recombinant human Cbl-b (aa 36-427) (Homo sapiens, UniProt Q13191); assay: Cbl-b Biochemical Assay (TR-FRET); conditions: read-out: TR-FRET hCbl-b IC50
Recombinant human Cbl-b (aa 36-427), sequence (Q13191 36-427): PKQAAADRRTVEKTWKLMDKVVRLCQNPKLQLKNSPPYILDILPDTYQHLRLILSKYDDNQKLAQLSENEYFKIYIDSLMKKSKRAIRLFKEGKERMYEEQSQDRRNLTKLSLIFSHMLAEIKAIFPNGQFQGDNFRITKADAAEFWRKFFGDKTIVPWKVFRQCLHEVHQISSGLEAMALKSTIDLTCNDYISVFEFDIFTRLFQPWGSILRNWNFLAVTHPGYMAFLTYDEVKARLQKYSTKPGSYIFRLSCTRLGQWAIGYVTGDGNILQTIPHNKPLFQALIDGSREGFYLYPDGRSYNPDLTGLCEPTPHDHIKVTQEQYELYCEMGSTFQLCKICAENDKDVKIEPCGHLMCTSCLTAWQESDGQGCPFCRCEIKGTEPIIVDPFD

[3] = tested on: Jurkat (clone E6-1) cells with NFAT luciferase reporter; assay: Jurkat reporter assay (NFAT Luciferase); type: cell-based; conditions: Jurkat NFAT luciferase reporter cells, anti-CD3 stimulation, 6 hr, read-out: Jurkat NFAT EC50

| SMILES | IC50 [1] [nM] | IC50 [2] [nM] | EC50 ([3]; Homo sapiens) [nM] | EC50 [3] [nM] |
| --- | --- | --- | --- | --- |
| Cn1cnnc1-c1cc(F)ccc1-c1cc(-c2nc3cc(CN[C@@H]4CCC[C@@H]4O)cc(C(F)(F)F)c3o2)cc(C2CC2)c1 [ACZ-8, (1S,2R)-2-[({2-[5-Cyclopropyl-4′-fluoro-2′-(4-methyl-1,2,4-triazol-3-yl)-[1,1′-biphenyl]-3-yl]-7-(trifluoromethyl)-1,3-benzoxazol-5-yl}methyl)amino]cyclopentan-1-ol] | < 200 | < 200 | < 200 | – |
| Cn1cnnc1-c1cc(F)ccc1-c1cccc(-c2nc3cc(CNCC4(C#N)CCOCC4)cc(C(F)(F)F)c3[nH]2)c1 [CT-2, 4-((((2-(4′-Fluoro-2′-(4-methyl-4H-1,2,4-triazol-3-yl)-[1,1′-biphenyl]-3-yl)-7-(trifluoromethyl)-1H-benzo[d]imidazol-5-yl)methyl)amino)methyl)tetrahydro-2H-pyran-4-carbonitrile] | 200 to 1000 | < 200 | 200 to 1000 | – |
| C[C@@H](c1cc(C(F)(F)F)c2[nH]c(-c3cccc(C4(Cc5nncn5C)COC4)c3)nc2c1)N1CCC2(CC2)C1 [ACM-1, (S)-5-(1-(5-Azaspiro[2.4]heptan-5-yl)ethyl)-2-(3-(3-((4-methyl-4H-1,2,4-triazol-3-yl)methyl)oxetan-3-yl)phenyl)-7-(trifluoromethyl)-1H-benzo[d]imidazole] | 10000 to 50000 | 200 to 1000 | 1000 to 10000 | – |
| CN(C)CC(=O)NCc1cc(C(F)(F)F)c2oc(-c3cccc(-c4ccc(F)cc4-c4nncn4C)c3)nc2c1 [HC-2, 2-(Dimethylamino)-N-((2-(4′-fluoro-2′-(4-methyl-4H-1,2,4-triazol-3-yl)-[1,1′-biphenyl]-3-yl)-7-(trifluoromethyl)benzo[d]oxazol-5-yl)methyl)acetamide] | 200 to 1000 | < 200 | 1000 to 10000 | – |
| Cn1cnnc1-c1cc(F)ccc1-c1cccc(-c2nc3cc(CN4CO[C@H]5CCC[C@H]54)cc(C(F)(F)F)c3o2)c1 [EH-1, 2-(4′-Fluoro-2′-(4-methyl-4H-1,2,4-triazol-3-yl)-[1,1′-biphenyl]-3-yl)-5-(((3aR,6aS)-tetrahydro-2H-cyclopenta[d]oxazol-3(3aH)-yl)methyl)-7-(trifluoromethyl)benzo[d]oxazole] | < 200 | < 200 | < 200 | – |
| Cn1cnnc1-c1cc(F)ccc1-c1cccc(-c2nc3cc(CNC4CCC4)c(F)c(F)c3o2)c1 [JF-1, N-((6,7-Difluoro-2-(4′-fluoro-2′-(4-methyl-4H-1,2,4-triazol-3-yl)-[1,1′-biphenyl]-3-yl)benzo[d]oxazol-5-yl)methyl)cyclobutanamine] | 200 to 1000 | < 200 | < 200 | – |
| Cn1cnnc1-c1cc(F)ccc1-c1cccc(-c2nc3cc(CN[C@@H]4CCC[C@@H]4O)c(F)cc3o2)c1 [IP-7, (1S,2R)-2-(((6-Fluoro-2-(4′-fluoro-2′-(4-methyl-4H-1,2,4-triazol-3-yl)-[1,1′-biphenyl]-3-yl)benzo[d]oxazol-5-yl)methyl)amino)cyclopentan-1-ol] | < 200 | < 200 | < 200 | – |
| Cn1cnnc1-c1cc(Cl)ccc1-c1cccc(-c2nc3cc(CN[C@@H]4CCC[C@@H]4O)cc(C(F)(F)F)c3o2)c1 [ADI-3, (1S,2R)-2-[({2-[4′-Chloro-2′-(4-methyl-1,2,4-triazol-3-yl)-[1,1′-biphenyl]-3-yl]-7-(trifluoromethyl)-1,3-benzoxazol-5-yl}methyl)amino]cyclopentan-1-ol] | < 200 | < 200 | < 200 | – |
| Cn1cnnc1-c1cc(F)ccc1-c1cccc(-c2nc3cc(CN4CCCC[C@@H]4CO)cc(C(F)(F)F)c3o2)c1 [IV-2, (R)-(1-((2-(4′-Fluoro-2′-(4-methyl-4H-1,2,4-triazol-3-yl)-[1,1′-biphenyl]-3-yl)-7-(trifluoromethyl)benzo[d]oxazol-5-yl)methyl)piperidin-2-yl)methanol] | 200 to 1000 | < 200 | 200 to 1000 | – |
| Cn1cnnc1CC1(c2cccc(-c3nc4cc(CN5CCC6(CC6)C5)cc(C(F)(F)F)c4[nH]3)c2)COC1 [ABK-1, 5-((5-Azaspiro[2.4]heptan-5-yl)methyl)-2-(3-(3-((4-methyl-4H-1,2,4-triazol-3-yl)methyl)oxetan-3-yl)phenyl)-7-(trifluoromethyl)-1H-benzo[d]imidazole] | 1000 to 10000 | 200 to 1000 | 1000 to 10000 | – |
| Cn1cnnc1[C@]1(c2cccc(-c3nc4cc(CN[C@@H]5CCC[C@@H]5O)cc(C(F)(F)F)c4o3)c2)C[C@@H](C)C1 [ADE-3, (1S,2R)-2-{[(2-{3-[(1r,3s)-3-Methyl-1-(4-methyl-1,2,4-triazol-3-yl)cyclobutyl]phenyl}-7-(trifluoromethyl)-1,3-benzoxazol-5-yl)methyl]amino}cyclopentan-1-ol] | < 200 | < 200 | – | < 200 |
| Cn1cnnc1-c1ccccc1-c1cccc(-c2nc3cc(CN[C@H]4CCC[C@@H]4O)cc(C(F)(F)F)c3o2)c1 [Example P-6, (1S,2S)-2-(((2-(2′-(4-Methyl-4H-1,2,4-triazol-3-yl)-[1,1′-biphenyl]-3-yl)-7-(trifluoromethyl)benzo[d]oxazol-5-yl)methyl)amino)cyclopentan-1-ol] | 1000 to 10000 | < 200 | 1000 to 10000 | – |
| Cn1cnnc1-c1cc(F)ccc1-c1cccc(-c2nc3cc(CNCC4(C#N)CCCC4)cc(C(F)(F)F)c3o2)c1 [CX-1, 1-((((2-(4′-Fluoro-2′-(4-methyl-4H-1,2,4-triazol-3-yl)-[1,1′-biphenyl]-3-yl)-7-(trifluoromethyl)benzo[d]oxazol-5-yl)methyl)amino)methyl)cyclopentane-1-carbonitrile] | < 200 | < 200 | 200 to 1000 | – |
| CO[C@@H]1CCCN(Cc2cc(C(F)(F)F)c3oc(-c4cccc(-c5ccc(F)cc5-c5nncn5C)c4)nc3c2)C1 [JR-2, (R)-2-(4′-Fluoro-2′-(4-methyl-4H-1,2,4-triazol-3-yl)-[1,1′-biphenyl]-3-yl)-5-((3-methoxypiperidin-1-yl)methyl)-7-(trifluoromethyl)benzo[d]oxazole] | 200 to 1000 | < 200 | 200 to 1000 | – |
| Cn1cnnc1-c1cc(F)ccc1-c1cccc(-c2cn3cc(CO)ccc3n2)c1 [FZ-5, (2-(4′-Fluoro-2′-(4-methyl-4H-1,2,4-triazol-3-yl)-[1,1′-biphenyl]-3-yl)imidazo[1,2-a]pyridin-6-yl)methanol] | 10000 to 50000 | 1000 to 10000 | 10000 to 50000 | – |

More lines, main results first:

| IC50 [1] [nM] | IC50 [2] [nM] | EC50 ([3]; Homo sapiens) [nM] | SMILES | EC50 [3] [nM] |
| --- | --- | --- | --- | --- |
| < 200 | < 200 | < 200 | COCCNCc1cc(C2CC2)c2oc(-c3cccc(-c4ccc(F)cc4-c4nncn4C)c3)nc2c1 [JH-1, N-((7-Cyclopropyl-2-(4′-fluoro-2′-(4-methyl-4H-1,2,4-triazol-3-yl)-[1,1′-biphenyl]-3-yl)benzo[d]oxazol-5-yl)methyl)-2-methoxyethan-1-amine] | – |
| < 200 | < 200 | < 200 | Cn1cnnc1-c1cc(F)ccc1-c1cccc(-c2nc3cc(CN[C@@H]4CCC[C@@H]4O)cc(C4CC4)c3o2)c1 [ES-6, (1S,2R)-2-(((7-Cyclopropyl-2-(4′-fluoro-2′-(4-methyl-4H-1,2,4-triazol-3-yl)-[1,1′-biphenyl]-3-yl)benzo[d]oxazol-5-yl)methyl)amino)cyclopentan-1-ol] | – |
| < 200 | < 200 | < 200 | CCCNCc1cc(C(F)(F)F)c2oc(-c3cccc(-c4ccc(F)cc4-c4nncn4C)c3)nc2c1 [FL-2, N-((2-(4′-Fluoro-2′-(4-methyl-4H-1,2,4-triazol-3-yl)-[1,1′-biphenyl]-3-yl)-7-(trifluoromethyl)benzo[d]oxazol-5-yl)methyl)propan-1-amine] | – |
| 200 to 1000 | < 200 | 1000 to 10000 | COc1cc(CNCCOC(C)C)cc2nc(-c3cccc(-c4ccc(F)cc4-c4nncn4C)c3)oc12 [GE-2, N-((2-(4′-Fluoro-2′-(4-methyl-4H-1,2,4-triazol-3-yl)-[1,1′-biphenyl]-3-yl)-7-methoxybenzo[d]oxazol-5-yl)methyl)-2-isopropoxyethan-1-amine, formic Acid] | – |
| < 200 | < 200 | < 200 | COCCNCc1cc(F)c2oc(-c3cccc(-c4ccc(F)cc4-c4nncn4C)c3)nc2c1 [IS-1, N-((7-Fluoro-2-(4′-fluoro-2′-(4-methyl-4H-1,2,4-triazol-3-yl)-[1,1′-biphenyl]-3-yl)benzo[d]oxazol-5-yl)methyl)-2-methoxyethan-1-amine] | – |
| 1000 to 10000 | 1000 to 10000 | 10000 to 50000 | COc1cc(CO)cc2nc(-c3cccc(-c4ccc(F)cc4-c4nncn4C)c3)oc12 [DW-3, (2-(4′-Fluoro-2′-(4-methyl-4H-1,2,4-triazol-3-yl)-[1,1′-biphenyl]-3-yl)-7-methoxybenzo[d]oxazol-5-yl)methanol] | – |
| < 200 | < 200 | < 200 | CCC1(CNCc2cc(C(F)(F)F)c3oc(-c4cccc(-c5ccc(F)cc5-c5nncn5C)c4)nc3c2)CCC1 [HP-2, 1-(1-Ethylcyclobutyl)-N-((2-(4′-fluoro-2′-(4-methyl-4H-1,2,4-triazol-3-yl)-[1,1′-biphenyl]-3-yl)-7-(trifluoromethyl)benzo[d]oxazol-5-yl)methyl)methanamine] | – |
